Where two headings read alike, the source gives them in different places.
Molecular target: human μ-opiate receptor (Homo sapiens, UniProt P35372)
Test: Affinity for the human μ-opiate receptor ([3H]-naloxone displacement, SPA, CHO-K1 membrane preparation)
Format: binding
Conditions: for inhibition at 1 µM: read-out: μ-Opioid receptor, % inhibition [1 μM]; for Ki: read-out: μ-Opioid receptor, Ki

Sequence of human μ-opiate receptor (P35372 whole entry): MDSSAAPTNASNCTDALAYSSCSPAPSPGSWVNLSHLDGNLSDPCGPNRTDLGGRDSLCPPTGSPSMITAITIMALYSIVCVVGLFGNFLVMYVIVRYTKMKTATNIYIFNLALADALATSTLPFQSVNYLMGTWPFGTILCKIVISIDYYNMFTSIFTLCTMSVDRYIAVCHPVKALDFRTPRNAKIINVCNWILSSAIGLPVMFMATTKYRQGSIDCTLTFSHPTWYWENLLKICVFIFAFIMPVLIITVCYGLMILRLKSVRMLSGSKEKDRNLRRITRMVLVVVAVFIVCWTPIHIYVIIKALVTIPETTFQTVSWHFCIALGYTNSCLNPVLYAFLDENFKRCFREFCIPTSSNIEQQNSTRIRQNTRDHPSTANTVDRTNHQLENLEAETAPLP

## CN(C)C(c1cccs1)C1CCC(CCNC(=O)c2c(Cl)cccc2Cl)CC1 (stereo not drawn) [compound 431, 2,6-dichloro-N-{2-[4-(dimethylamino-thiophen-2-yl-methyl)-cyclohexyl]-ethyl}-benzamide]
  inhibition at 1 µM: 93%
  Ki: 26 nM

## CCC(C(=O)NC1CCC(C(c2ccccc2)N(C)C)CC1)c1ccccc1 (single isomer, unassigned) [compound 250, N-[4-(dimethylamino-phenyl-methyl)-cyclohexyl]-2-phenyl-butyramide]
1 µM
  μ-Opioid receptor, % inhibition [1 μM]: 81%
  Ki: 36 nM

## COc1cc(C(=O)NC2CCC(C(c3cccs3)N(C)C)CC2)cc(OC)c1OC (stereo not drawn) [compound 212, N-[4-(dimethylamino-thiophen-2-yl-methyl)-cyclohexyl]-3,4,5-trimethoxy-benzamide]
  inhibition at 1 µM: 91%
  Ki: 19 nM

## CN(C)C(c1cccc(F)c1)C1CCC(NC(=O)c2ccc(-c3ccccn3)s2)CC1 (stereo not drawn) [compound 267, 5-pyridin-2-yl-thiophene-2-carboxylic acid {4-[dimethylamino-(3-fluoro-phenyl)-methyl]-cyclohexyl}-amide]
  inhibition at 1 µM: 77%
  Ki: 150 nM

## COc1c(C(=O)NCC2CCC(C(c3cccc(F)c3)N(C)C)CC2)csc1Cl (stereo not drawn) [compound 303, 5-chloro-4-methoxy-thiophene-3-carboxylic acid {4-[dimethylamino-(3-fluoro-phenyl)-methyl]-cyclohexylmethyl}-amide]
  inhibition at 1 µM: 99%
  Ki: 19 nM

## CN(C)C(c1ccccc1)C1CCC(NC(=O)Cc2cccs2)CC1 (stereo not drawn) [compound 255, N-[4-(dimethylamino-phenyl-methyl)-cyclohexyl]-2-thiophen-2-yl-acetamide]
  inhibition at 1 µM: 80%
  Ki: 46 nM

## Cc1cc(C(=O)NC2CCC(C(c3cccs3)N(C)C)CC2)no1 (stereo not drawn) [compound 224, 5-Methyl-isoxazole-3-carboxylic acid [4-(dimethylamino-thiophen-2-yl-methyl)-cyclohexyl]-amide]
  inhibition at 1 µM: 87%

## CN(C)C(c1ccc(F)cc1)C1CCC(CCNC(=O)c2cccc(Cl)c2)CC1 (single isomer, unassigned) [compound 423, 3-chloro-N-(2-{4-[dimethylamino-(4-fluoro-phenyl)-methyl]-cyclohexyl}-ethyl)-benzamide]
  μ-Opioid receptor, % inhibition [1 μM]: 83%
  Ki: 15 nM

## CN(C)C(c1ccccc1)C1CCC(CCNC(=O)c2ccc(Cl)cc2)CC1 (stereo not drawn) [compound 405, 4-chloro-N-{2-[4-(dimethylamino-phenyl-methyl)-cyclohexyl]-ethyl}-benzamide]
  inhibition at 1 µM: 88%
  Ki: 25 nM

## CN(C)C(c1cccs1)C1CCC(CNC(=O)C(c2ccccc2)c2ccccc2)CC1 (stereo not drawn) [compound 297, N-[4-(dimethylamino-thiophen-2-yl-methyl)-cyclohexylmethyl]-2,2-diphenyl-acetamide]
  inhibition at 1 µM: 100%
  Ki: 4 nM

## COc1c(C(=O)NCCC2CCC(C(c3ccccc3)N(C)C)CC2)csc1Cl (stereo not drawn) [compound 474, 5-chloro-4-methoxy-thiophene-3-carboxylic acid {2-[4-(dimethylamino-phenyl-methyl)-cyclohexyl]-ethyl}-amide]
  inhibition at 1 µM: 100%
  Ki: 2.7 nM

## CN(C)C(c1ccccc1)C1CCC(NC(=O)c2cccc(C(F)(F)F)c2)CC1 (stereo not drawn) [compound 203, N-[4-(dimethylamino-phenyl-methyl)-cyclohexyl]-3-trifluoromethyl-benzamide]
  inhibition at 1 µM: 94%
  Ki: 51 nM

## CN(C)C(c1ccc(Cl)cc1)C1CCC(CNC(=O)c2cccc(C(F)(F)F)c2)CC1 (stereo not drawn) [compound 369, N-{4-[(4-chloro-phenyl)-dimethylamino-methyl]-cyclohexylmethyl}-3-trifluoromethyl-benzamide]
  inhibition at 1 µM: 84%
  Ki: 68 nM

## Cc1oc(-c2ccccc2)cc1C(=O)NCC1CCC(C(c2cccc(F)c2)N(C)C)CC1 (stereo not drawn) [compound 373, 2-methyl-5-phenyl-furan-3-carboxylic acid {4-[dimethylamino-(3-fluoro-phenyl)-methyl]-cyclohexylmethyl}-amide]
1 µM
  μ-Opioid receptor, % inhibition [1 μM]: 84%
  Ki: 61 nM

## COc1cccc(C(=O)NCCC2CCC(C(c3ccc(F)cc3)N(C)C)CC2)c1 (stereo not drawn) [compound 447, N-(2-{4-[dimethylamino-(4-fluoro-phenyl)-methyl]-cyclohexyl}-ethyl)-3-methoxy-benzamide]
  inhibition at 1 µM: 83%
  Ki: 130 nM

## CN(C)C(c1cccc(F)c1)C1CCC(NC(=O)c2cc(Cl)cc(Cl)c2)CC1 (stereo not drawn) [compound 243, 3,5-dichloro-N-{4-[dimethylamino-(3-fluoro-phenyl)-methyl]-cyclohexyl}-benzamide]
  inhibition at 1 µM: 82%
  Ki: 25 nM

## CN(C)C(c1cccc(F)c1)C1CCC(CCNC(=O)c2cc(F)c(Cl)cc2Cl)CC1 (single isomer, unassigned) [compound 438, 2,4-dichloro-N-(2-{4-[dimethylamino-(3-fluoro-phenyl)-methyl]-cyclohexyl}-ethyl)-5-fluoro-benzamide]
  inhibition at 1 µM: 87%
  Ki: 100 nM

## CN(C)C(c1ccccc1)C1CCC(CNC(=O)C2(c3ccc(Cl)cc3)CCCC2)CC1 (stereo not drawn) [compound 318, 1-(4-chloro-phenyl)-cyclopentane-carboxylic acid [4-(dimethylamino-phenyl-methyl)-cyclohexylmethyl]-amide]
  inhibition at 1 µM: 95%
  Ki: 23 nM

## CC(Oc1ccccc1)C(=O)NC1CCC(C(c2cccc(F)c2)N(C)C)CC1 (single isomer, unassigned) [compound 222, N-{4-[dimethylamino-(3-fluoro-phenyl)-methyl]-cyclohexyl}-2-phenoxy-propionamide]
1 µM
  μ-Opioid receptor, % inhibition [1 μM]: 88%
  Ki: 20 nM

## CN(C)C(c1ccccc1)C1CCC(NC(=O)c2cncc(Br)c2)CC1 (stereo not drawn) [compound 259, 5-bromo-N-[4-(dimethylamino-phenyl-methyl)-cyclohexyl]-nicotinamide]
1 µM
  μ-Opioid receptor, % inhibition [1 μM]: 79%
  Ki: 62 nM

## CN(C)C(c1cccs1)C1CCC(NC(=O)c2cccnc2Oc2ccc(Cl)cc2)CC1 (stereo not drawn) [compound 257, 2-(4-chloro-phenoxy)-N-[4-(dimethylamino-thiophen-2-yl-methyl)-cyclohexyl]-nicotinamide]
  inhibition at 1 µM: 79%
  Ki: 81 nM

## CN(C)C(c1ccc(F)cc1)C1CCC(CNC(=O)c2csc3ccccc23)CC1 (stereo not drawn) [compound 344, benzo[b]thiophene-3-carboxylic acid {4-[dimethylamino-(4-fluoro-phenyl)-methyl]-cyclohexylmethyl}-amide]
  inhibition at 1 µM: 90%
  Ki: 13 nM

## Cc1cccc(C(=O)NCCC2CCC(C(c3cccs3)N(C)C)CC2)c1 (stereo not drawn) [compound 430, N-{2-[4-(dimethylamino-thiophen-2-yl-methyl)-cyclohexyl]-ethyl}-3-methyl-benzamide]
  inhibition at 1 µM: 101%
  Ki: 4.4 nM

## COc1cccc(CC2(O)CCC(C(c3ccc(Cl)cc3)N(C)C)CC2)c1 (stereo not drawn) [compound 173, 4-[(4-chloro-phenyl)-dimethylamino-methyl]-1-(3-methoxy-benzyl)-cyclohexanol]
1 μM test substance, inhibition of specific [3H]-naloxone binding
  inhibition at 1 µM: 84%

## COc1c(C(=O)NCC2CCC(C(c3ccccc3)N(C)C)CC2)csc1Cl (stereo not drawn) [compound 293, 5-chloro-4-methoxy-thiophene-3-carboxylic acid [4-(dimethylamino-phenyl-methyl)-cyclohexylmethyl]-amide]
  inhibition at 1 µM: 102%
  Ki: 4.6 nM

## CN(C)C(c1ccccc1)C1CCC(CCNC(=O)c2ccc3snnc3c2)CC1 (stereo not drawn) [compound 472, benzo[1,2,3]thiadiazole-5-carboxylic acid {2-[4-(dimethylamino-phenyl-methyl)-cyclohexyl]-ethyl}-amide]
  inhibition at 1 µM: 85%

## Cc1oc(-c2ccccc2)cc1C(=O)NCCC1CCC(C(c2ccccc2)N(C)C)CC1 (stereo not drawn) [compound 467, 2-methyl-5-phenyl-furan-3-carboxylic acid {2-[4-(dimethylamino-phenyl-methyl)-cyclohexyl]-ethyl}-amide]
  inhibition at 1 µM: 82%
  Ki: 62 nM

## COc1c(C(=O)NCCC2CCC(C(CCc3ccccc3)N(C)C)CC2)csc1Cl (stereo not drawn) [compound 476, 5-chloro-4-methoxy-thiophene-3-carboxylic acid {2-[4-(1-dimethylamino-3-phenyl-propyl)-cyclohexyl]-ethyl}-amide]
  inhibition at 1 µM: 87%
  Ki: 84 nM

## CN(C)C(c1ccccc1)C1CCC(CNC(=O)c2ccc(Cl)cc2Cl)CC1 (stereo not drawn) [compound 361, 2,4-dichloro-N-[4-(dimethylamino-phenyl-methyl)-cyclohexylmethyl]-benzamide]
  inhibition at 1 µM: 85%
  Ki: 42 nM

## CC(Oc1ccccc1)C(=O)NCC1CCC(C(c2cccs2)N(C)C)CC1 (stereo not drawn) [compound 304, N-[4-(dimethylamino-thiophen-2-yl-methyl)-cyclohexylmethyl]-2-phenoxy-propionamide]
  inhibition at 1 µM: 99%
  Ki: 15 nM

## CN(C)C(c1ccccc1)C1CCC(CNC(=O)c2cccc(C(F)(F)F)c2)CC1 (single isomer, unassigned) [compound 326, N-[4-(dimethylamino-phenyl-methyl)-cyclohexylmethyl]-3-trifluoromethyl-benzamide]
  inhibition at 1 µM: 94%
  Ki: 11 nM

## COc1ccc(C(=O)NC2CCC(C(c3ccccc3)N(C)C)CC2)c(OC)c1 (stereo not drawn) [compound 216, N-[4-(dimethylamino-phenyl-methyl)-cyclohexyl]-2,4-dimethoxy-benzamide]
  inhibition at 1 µM: 90%
  Ki: 56 nM

## CN(C)C(c1cccs1)C1CCC(CCNC(=O)c2ccc(F)c(F)c2)CC1 (stereo not drawn) [compound 446, N-{2-[4-(dimethylamino-thiophen-2-yl-methyl)-cyclohexyl]-ethyl}-3,4-difluoro-benzamide]
  inhibition at 1 µM: 99%
  Ki: 6.4 nM

## CN(C)C(c1ccccc1)C1CCC(CNC(=O)c2cccnc2Cl)CC1 (stereo not drawn) [compound 355, 2-chloro-N-[4-(dimethylamino-phenyl-methyl)-cyclohexylmethyl]-nicotinamide]
  inhibition at 1 µM: 86%
  Ki: 120 nM

## CN(C)C(c1ccccc1)C1CCC(CNC(=O)c2cccnc2Sc2ccc(Cl)cc2)CC1 (stereo not drawn) [compound 374, 2-(4-chloro-phenylsulfanyl)-N-[4-(dimethylamino-phenyl-methyl)-cyclohexyl-methyl]-nicotinamide]
  inhibition at 1 µM: 84%

— US8058475B2, “Substituted cyclohexylmethyl compounds” (Gruenenthal GmbH, priority 2005, dated 2011)
